Experimental data: publication PMC3530466, “Recombinant Expression of Margatoxin and Agitoxin-2 in Pichia pastoris: An Efficient Method for Production of KV1.3 Channel Blockers” (PLoS ONE, 2012)
Bridge positions count the residues as written; N and C are the ends. Ends that are not written are not given here.

What was measured:
[1] = biological target: T1, mouse KV1.1 (mKV1.1) channels stably expressed in L929 cells (Mus musculus, UniProt P16388); test: Inhibition of mKV1.1 currents, whole-cell patch clamp; format: cell-based; details: room temperature, 200-ms pulses from -80 mV to 40 mV every 30 s, Hill fit to reduction of peak current at 40 mV, each data point mean of 3–5 determinations
T1 construct: expressed in transfected cells
Procedure: (§1) L929 mouse fibroblast cells stably expressing mouse KV1.1 or mouse KV1.3 channels were kind gifts from Dr. George Chandy (University of California, Irvine). The cells were maintained in DMEM medium (Invitrogen, Carlsbad, CA, USA) supplemented with 10 IU/ml penicillin, 0.1 mg/ml streptomycin, 2 mM L-glutamine, 10% heat-inactivated fetal bovine serum, and 0.5 mg/ml G418 (EMD Chemicals, Gibbstown, NJ, USA). Freshly prepared buffy coats were purchased from the Gulf Coast Regional Blood Center (Houston, TX, USA) under a Baylor College of Medicine Institutional Review Board-approved protocol. Mononuclear cells were isolated from the buffy coats using Histopaque-1077 gradients (Sigma, St Louis, MI, USA) and used immediately or stored frozen in liquid nitrogen.
(§2) Experiments were conducted at room temperature using the whole-cell patch-clamp technique, as described previously. […] The bath solution contained (in mM): 160 NaCl, 4.5 KCl, 2 CaCl2, 1 MgCl2, 10 HEPES, pH 7.2, 300 mOsm. KV channel currents were elicited every 30 s by 200-ms depolarizing pulses from a holding potential of –80 mV to 40 mV. K d values and Hill coefficients were determined by fitting the Hill equation to the reduction of peak current measured at 40 mV.

[2] = biological target: T2, mouse KV1.3 (mKV1.3) channels stably expressed in L929 cells (Mus musculus, UniProt P16390); test: Inhibition of mKV1.3 currents, whole-cell patch clamp; format: cell-based; details: room temperature, each data point mean of 3–5 determinations
T2 construct: expressed in transfected cells
Procedure: as §1, §2

human T lymphocytes = test: Proliferation of T lymphocytes, [3H] thymidine incorporation; format: cell-based; details: freshly-isolated human T lymphocytes, 60 ng/ml anti-CD3 antibody (OKT3), pre-incubated 45 min at 37°C, cultured 72 h, [3H] thymidine last 16–18 h; three independent experiments with cells from different donors
Procedure: as §1
Mononuclear cells (10^6/ml) were plated into 96-well microplates and pre-incubated with peptidic KV1.3 blockers for 45 min at 37°C in RPMI medium (Invitrogen) supplemented with 100 IU/ml penicillin, 0.1 mg/ml streptomycin, 2 mM L-glutamine, 1 mM sodium pyruvate, 1% non-essential amino acids, 1% RPMI vitamins, […] β-mercaptoethanol, and 1% heat-inactivated fetal bovine serum. […] [^3H] thymidine incorporation into the DNA of proliferating cells was measured using a β-scintillation counter (Beckman Coulter, Brea, CA, USA).

KV1.3 = details: cited from earlier work; for potency of native toxin on KV1.3: native toxins, ref [31]; for block of KV1.3 channels: ref [22], [30], [31]
Description: Voltage-gated potassium (KV) channels are expressed in a wide range of cell types and tissues where they play key roles in physiological processes such as cell excitability, muscle contraction, and regulation of cardiac function. KV channels are composed of four α subunits that together form a functional channel. There are […] subfamilies of KV channels, with KV1.3 being one of eight subtypes in the KV1.x subfamily. […] We therefore measured the ability of rAgTx2 and rMgTx to block mouse KV1.3 (mKV1.3) and mouse KV1.1 (mKV1.1) channels stably expressed in L929 cells. […] The recombinant rAgTx2 and rMgTx inhibited mKV1.3 with simi ... || KV channels have diverse physiological functions; they play important roles in cell excitability, muscle contraction, regulation of neuronal and cardiac electrical functions, and propagation of action potentials. […] This has led to the hypothesis that compounds that selectively target KV1.3 channels could be used to treat autoimmune diseases. Consistent with this idea, ... || (+ 1 further places)

[3] = test system: acid sensing ion channel 1a; details: ref [49]; cited from earlier work
Description: Recombinant production is the most cost-effective method for producing disulfide-rich peptides. The most common host for heterologous expression of venom peptides is E. coli, [47] but this often necessitates oxidative refolding of the peptides as the redox environment of the E. coli cytoplasm is not favorable for disulfide-bond formation. Higher yields of correctly folded toxin can often be obtained by exporting the peptides into periplasm of E. coli, where the cellular machinery for disulfide-bond formation is located [17]–[19]; however, the overall yield of recombi ...

KV1.1 = details: ref [22], [30], [31]; cited from earlier work
Description: We therefore measured the ability of rAgTx2 and rMgTx to block mouse KV1.3 (mKV1.3) and mouse KV1.1 (mKV1.1) channels stably expressed in L929 cells. […] The recombinant rAgTx2 and rMgTx inhibited mKV1.3 with simi ...

T lymphocytes = details: native toxins; ref [33], [34]; read-out: IC50 range previously described, T lymphocyte proliferation; cited from earlier work
Procedure: We next tested the ability of each recombinant peptides to block the proliferation of freshly-isolated human T lymphocytes, which are sensitive to KV1.3 channel blockers. […] These concentrations are within the range previously described for MgTx (∼5 nM) and AgTx2 (>5 nM), [34]. Thus the biological activities of rAgTx2 and rMgTx produced in P.pastoris are similar to the native toxins.

human KV1.3 channel = details: by blocking the central ion-conducting pore; ref [21], [22], [43]; cited from earlier work
Description: Some α-KTxs are of significant interest because they potently block the human KV1.3 channel. […] However, despite their similar 3D fold and high sequence homology, the affinity of α-KTx toxins for KV1.3 varies over six orders of magnitude from picomolar to micromolar. Moreover, many of these toxins inhibit a number of different subtypes KV channels with high affinity, an undesirable attribute for peptides being considered for therapeutic use due to the ...

[4] = 200-ms pulses from -80 mV to 40 mV every 30 s, Hill fit to reduction of peak current at 40 mV

T2 sequence (P16390 whole entry): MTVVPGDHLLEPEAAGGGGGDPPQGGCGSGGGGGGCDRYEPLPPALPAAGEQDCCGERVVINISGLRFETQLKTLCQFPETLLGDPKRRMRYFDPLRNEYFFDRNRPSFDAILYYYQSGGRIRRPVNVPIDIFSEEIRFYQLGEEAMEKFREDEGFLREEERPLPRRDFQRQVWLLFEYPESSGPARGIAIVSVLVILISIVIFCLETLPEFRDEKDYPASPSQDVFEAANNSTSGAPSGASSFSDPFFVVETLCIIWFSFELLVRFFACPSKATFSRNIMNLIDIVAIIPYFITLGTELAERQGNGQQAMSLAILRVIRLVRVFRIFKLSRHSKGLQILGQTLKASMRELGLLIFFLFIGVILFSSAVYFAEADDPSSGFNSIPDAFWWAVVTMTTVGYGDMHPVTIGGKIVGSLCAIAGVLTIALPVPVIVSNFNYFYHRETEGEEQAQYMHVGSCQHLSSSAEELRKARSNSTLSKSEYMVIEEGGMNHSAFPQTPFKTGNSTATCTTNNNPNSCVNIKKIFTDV
T1 sequence (P16388 whole entry): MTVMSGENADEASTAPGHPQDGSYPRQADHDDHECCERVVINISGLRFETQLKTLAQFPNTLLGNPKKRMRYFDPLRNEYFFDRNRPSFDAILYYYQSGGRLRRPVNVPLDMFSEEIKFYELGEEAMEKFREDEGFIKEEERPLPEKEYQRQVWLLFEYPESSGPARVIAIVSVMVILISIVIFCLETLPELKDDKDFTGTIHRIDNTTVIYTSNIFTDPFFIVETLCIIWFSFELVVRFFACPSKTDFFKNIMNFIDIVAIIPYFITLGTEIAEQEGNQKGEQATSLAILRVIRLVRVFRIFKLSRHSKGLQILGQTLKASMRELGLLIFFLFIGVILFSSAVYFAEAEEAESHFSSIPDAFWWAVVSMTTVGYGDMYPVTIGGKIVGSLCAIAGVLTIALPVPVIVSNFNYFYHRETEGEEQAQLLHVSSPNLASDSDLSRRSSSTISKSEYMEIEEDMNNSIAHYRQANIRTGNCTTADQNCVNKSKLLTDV

Q: Which IC50 [1] does the source give for `CC[C@H](C)[C@@H]1NC(=O)[C@@H]2CSSC[C@@H]3NC(=O)[C@H](CCCCN)NC(=O)[C@H](CCCNC(=N)N)NC(=O)[C@H](CC(N)=O)NC(=O)[C@H](CCSC)NC(=O)[C@H](CSSC[C@H](NC(=O)[C@H](CO)NC(=O)[C@@H](NC(=O)[C@H](CC(N)=O)NC(=O)[C@@H](NC(=O)[C@@H]4CCCN4C(=O)[C@@H](NC(=O)CNC(=O)[C@H](Cc4c[nH]cn4)NC(=O)[C@H](Cc4c[nH]cn4)NC(=O)[C@H](Cc4c[nH]cn4)NC(=O)[C@H](Cc4c[nH]cn4)NC(=O)[C@H](Cc4c[nH]cn4)NC(=O)[C@H](Cc4c[nH]cn4)NC(=O)[C@H](Cc4ccccc4)NC(=O)[C@@H](N)CCC(=O)O)C(C)C)[C@@H](C)CC)C(C)C)C(=O)N[C@@H]([C@@H](C)O)C(=O)NCC(=O)N[C@@H](CO)C(=O)N4CCC[C@H]4C(=O)N[C@@H](CCC(N)=O)C(=O)N2)NC(=O)[C@H](CCCCN)NC(=O)CNC(=O)[C@H](Cc2ccccc2)NC(=O)[C@H](CCCNC(=N)N)NC(=O)[C@H](CCSC)NC(=O)CNC(=O)[C@H](C)NC(=O)[C@H](CC(=O)O)NC(=O)[C@H](CCCCN)NC(=O)[C@H](CSSC[C@@H](C(=O)N[C@H](C(=O)N2CCC[C@H]2C(=O)N[C@@H](CCCCN)C(=O)O)[C@@H](C)O)NC(=O)[C@H](Cc2c[nH]cn2)NC3=O)NC(=O)[C@@H]2CCCN2C(=O)[C@H](CCCCN)NC1=O` [rAgTx2, recombinant agitoxin-2] here?
A: 0.144 ± 0.03 nM

Q: What about the IC50 [2, 4] of the same compound?
A: 0.201 ± 0.039 nM

Q: And the IC50 (human T lymphocytes)?
A: ~40 nM

Q: With “BmKTX: native peptide, parent of ADWX-1 (VGINVKCKHSGQCLKPCKDAGMRFGKCINGKCDCTPK; ends and bridges not checked; cysteine pairing not given here; UniProt Q9NII7 23-59, looked up)” as the compound, how does the IC50 (KV1.3; ref [44]) read?
A: 0.15 nM

Q: Which IC50 ([2]; K28A mutant, Hill fit to peak current at 40 mV) does the source give for “EFHHHHHHTIINVKCTSPKQCLPPCKAQFGQSAGAACMNGKCKCYPH (disulfide 15-37, 21-42, 25-44) [rMgTx-K28A]” here?
A: 216 ± 24 nM

Q: Which IC50 [1] does the source give for “EFHHHHHHTIINVKCTSPKQCLPPCKAQFGQSAGAKCMNGKCKCYPH (disulfide 15-37, 21-42, 25-44) [rMgTx, recombinant margatoxin]” here?
A: 0.396 ± 0.041 nM

Q: What about the IC50 [2, 4] of the same compound?
A: 0.097 ± 0.003 nM

Q: What about the IC50 (human T lymphocytes) of the same compound?
A: ~6 nM

Q: With “PcTx1 (EDCIPKWKGCVNRHGDCCEGLECWKRRRSFEVCVPKTPKT; ends and bridges not checked; cysteine pairing not given here; UniProt P60514 1-40, looked up)” as the compound, how does the “block of acid sensing ion channel 1a” value [3] read?
A: potent blocker

Q: With agitoxin-2 [AgTx2] as the compound, how does the “block of KV1.1 channels” value (KV1.1) read?
A: picomolar concentrations

Q: What about the IC50 (T lymphocytes) of the same compound?
A: > 5 nM

Q: And the “potency of native toxin on KV1.3” value (KV1.3)?
A: 200 pM

Q: And the “block of KV1.3 channels” value (KV1.3)?
A: picomolar concentrations

Q: And the “inhibition of KV1.3” value (human KV1.3 channel)?
A: potently inhibit KV1.3

Q: For “margatoxin (TIINVKCTSPKQCLPPCKAQFGQSAGAKCMNGKCKCYPH; UniProt P40755 1-39, looked up) [MgTx]”, which “block of KV1.1 channels” value (KV1.1) is on record?
A: picomolar concentrations

Q: And the IC50 (T lymphocytes)?
A: ~5 nM

Q: What about the “potency of native toxin on KV1.3” value (KV1.3) of the same compound?
A: 30−100 pM

Q: What about the “block of KV1.3 channels” value (KV1.3) of the same compound?
A: picomolar concentrations

Q: And the “inhibition of KV1.3” value (human KV1.3 channel)?
A: potently inhibit KV1.3
